Results taken from US11685732B2, “MYST family histone acetyltransferase inhibitors” (Epizyme, Inc., priority 2017, dated 2023).

Assays:
KAT-8 = KAT-8 (Homo sapiens (Human), UniProt Q9H7Z6); assay: KAT-8 biochemical inhibition assay (SAMDI mass spectrometry)
In short: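 Compounds in 2% DMSO pre-incubated with 12.5 nM enzyme in 50 mM Tris pH 8.0 with Tween20, gelatin and 1 mM DTT. Then 1 μM peptide and 5 μM acetyl-CoA were added, 90 min at 25 °C; formic acid stop and SAMDI-TOF mass spectrometry for IC50.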

KAT-5 = KAT-5 (Homo sapiens (Human), UniProt Q92993); assay: KAT-5 biochemical inhibition assay (SAMDI mass spectrometry)
Sequence of KAT-5 (Q92993 other isoform, or with tags, fused parts or gaps): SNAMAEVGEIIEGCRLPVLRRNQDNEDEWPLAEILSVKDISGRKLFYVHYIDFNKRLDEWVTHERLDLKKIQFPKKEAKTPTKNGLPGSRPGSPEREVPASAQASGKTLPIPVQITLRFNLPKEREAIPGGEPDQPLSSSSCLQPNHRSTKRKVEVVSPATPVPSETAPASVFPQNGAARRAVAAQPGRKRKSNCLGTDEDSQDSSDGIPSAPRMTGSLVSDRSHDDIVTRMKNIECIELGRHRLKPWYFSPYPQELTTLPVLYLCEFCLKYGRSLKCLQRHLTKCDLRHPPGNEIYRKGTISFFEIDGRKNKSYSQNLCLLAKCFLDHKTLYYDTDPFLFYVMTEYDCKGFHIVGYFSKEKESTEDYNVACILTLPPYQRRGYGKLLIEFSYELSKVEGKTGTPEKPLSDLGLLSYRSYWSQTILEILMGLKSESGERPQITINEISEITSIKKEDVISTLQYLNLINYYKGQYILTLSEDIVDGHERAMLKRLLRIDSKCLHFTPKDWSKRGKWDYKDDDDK
In short: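 KAT-5 at 9 nM final was preincubated with serially diluted compound (2% DMSO) in 50 mM Tris pH 8.0 with 1 mM DTT. Reaction ran with 1 μM peptide substrate and 0.5 μM acetyl-CoA for 90 min at 25° C, was quenched with 0.5% formic acid, and was read by SAMDI-TOF mass spectrometry.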

KAT-6A = KAT-6A (Homo sapiens (Human), UniProt Q92794); assay: KAT-6A biochemical inhibition assay (SAMDI mass spectrometry)
Sequence of KAT-6A (Q92794 other isoform, or with tags, fused parts or gaps): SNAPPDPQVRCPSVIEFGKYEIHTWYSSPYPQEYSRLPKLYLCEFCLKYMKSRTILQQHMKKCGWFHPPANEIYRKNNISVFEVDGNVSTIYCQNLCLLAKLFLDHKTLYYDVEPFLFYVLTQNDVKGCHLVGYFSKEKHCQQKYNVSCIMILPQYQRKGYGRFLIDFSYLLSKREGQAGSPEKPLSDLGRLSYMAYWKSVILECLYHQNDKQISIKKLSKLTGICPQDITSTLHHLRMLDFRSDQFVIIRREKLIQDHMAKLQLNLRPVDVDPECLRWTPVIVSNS
In short: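 Enzyme (12.5 nM final) pre-incubated with serially diluted compounds (2% DMSO final) in 50 mM Tris pH 8.0 with Tween20, gelatin and 1 mM DTT. Reaction started with 1 μM peptide substrate and 1 μM acetyl-CoA, run 90 min at 25 °C, quenched with 0.5% formic acid, read by SAMDI-TOF mass spectrometry; IC50 derived.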

KAT-7 = KAT-7 (Homo sapiens (Human), UniProt O95251); assay: KAT-7 biochemical inhibition assay (SAMDI mass spectrometry)
Sequence of KAT-7 (O95251 other isoform, or with tags, fused parts or gaps): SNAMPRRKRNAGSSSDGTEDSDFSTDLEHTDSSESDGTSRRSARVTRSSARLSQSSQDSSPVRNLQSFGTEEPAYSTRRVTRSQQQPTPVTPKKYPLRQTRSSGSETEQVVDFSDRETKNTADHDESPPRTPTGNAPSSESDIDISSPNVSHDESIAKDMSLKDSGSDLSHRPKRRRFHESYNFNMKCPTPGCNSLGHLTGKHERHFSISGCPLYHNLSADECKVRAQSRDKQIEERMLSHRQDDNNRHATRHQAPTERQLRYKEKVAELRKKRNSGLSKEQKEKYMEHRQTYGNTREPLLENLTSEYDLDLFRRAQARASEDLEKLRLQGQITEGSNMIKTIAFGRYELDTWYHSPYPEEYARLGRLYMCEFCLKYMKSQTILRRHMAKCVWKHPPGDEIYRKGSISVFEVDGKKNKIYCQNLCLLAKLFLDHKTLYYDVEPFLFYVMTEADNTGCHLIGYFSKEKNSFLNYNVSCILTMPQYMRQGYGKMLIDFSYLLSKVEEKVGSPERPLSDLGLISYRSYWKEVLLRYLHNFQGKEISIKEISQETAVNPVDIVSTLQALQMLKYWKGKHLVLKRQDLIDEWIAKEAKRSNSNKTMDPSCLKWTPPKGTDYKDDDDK
In short: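 KAT-7 (6 nM) was pre-incubated with serially diluted compound (2% DMSO) in Tris pH 8.0 with DTT. Reaction with 1 μM peptide and 2 μM acetyl-CoA ran 120 min at 25 °C and was stopped with 0.5% formic acid. Acetylation was read by SAMDI-TOF mass spectrometry to give IC50.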

Sequence of KAT-8 (Q9H7Z6 other isoform, or with tags, fused parts or gaps): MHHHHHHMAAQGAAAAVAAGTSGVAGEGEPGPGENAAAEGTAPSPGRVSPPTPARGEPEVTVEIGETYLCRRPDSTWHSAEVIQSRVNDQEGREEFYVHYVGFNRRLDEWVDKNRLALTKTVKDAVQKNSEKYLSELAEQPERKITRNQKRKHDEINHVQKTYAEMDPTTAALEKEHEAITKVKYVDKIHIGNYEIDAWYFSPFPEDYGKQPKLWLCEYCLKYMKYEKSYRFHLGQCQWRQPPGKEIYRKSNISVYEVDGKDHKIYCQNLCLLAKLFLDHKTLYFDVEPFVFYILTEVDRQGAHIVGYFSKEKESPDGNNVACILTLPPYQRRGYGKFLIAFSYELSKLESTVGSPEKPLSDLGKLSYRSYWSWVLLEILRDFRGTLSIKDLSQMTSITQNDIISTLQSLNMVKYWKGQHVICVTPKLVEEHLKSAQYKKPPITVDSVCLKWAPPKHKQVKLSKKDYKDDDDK

Row | Compound | IC50 (KAT-8) [µM] | IC50 (KAT-5) [µM] | IC50 (KAT-6A) [µM] | IC50 (KAT-7) [µM]
1 | CCNC(=O)N[C@H]1CC[C@H](CS(=O)(=O)NNC(=O)c2cc(-c3cn(C)cn3)cc(Cl)c2F)CC1 [Compound I-109] | 10 to 50 | < 10 | < 10 | < 10
2 | Cn1cnc(-c2cc(Cl)c(F)c(C(=O)NNS(=O)(=O)c3ccccc3)c2)c1 [Compound I-110] | 10 to 50 | < 10 | < 10 | < 10
3 | Cn1cnc(-c2cc(Cl)c(F)c(C(=O)NNS(=O)(=O)Cc3ccccc3)c2)c1 [Compound I-111] | 10 to 50 | < 10 | < 10 | < 10
4 | CCNC(=O)N[C@H]1C[C@H](CS(=O)(=O)NNC(=O)c2cc(-c3cn(C)cn3)cc(Cl)c2F)C1 [Compound I-112] | 10 to 50 | < 10 | 10 to 50 | < 10
5 | Cn1cnc(-c2cc(Cl)c(F)c(C(=O)NNS(=O)(=O)C[C@H]3C[C@@H](N)C3)c2)c1 [Compound I-113] | 10 to 50 | 10 to 50 | 10 to 50 | < 10
6 | Cn1cnc(-c2cc(Cl)c(F)c(C(=O)NNS(=O)(=O)C[C@H]3C[C@@H](NC(=O)OC(C)(C)C)C3)c2)c1 [Compound I-114] | 10 to 50 | < 10 | < 10 | < 10
7 | Cn1cnc(-c2cc(Cl)c(F)c(C(=O)NNS(=O)(=O)CC3CCCC(NC(N)=O)C3)c2)c1 (stereo not shown) [Compound I-115] | 10 to 50 | < 10 | < 10 | < 10
8 | CC(=O)N[C@H]1C[C@@H](CS(=O)(=O)NNC(=O)c2cc(-c3cn(C)cn3)cc(Cl)c2F)C1 [Compound I-116] | 10 to 50 | < 10 | < 10 | < 10
9 | Cn1cnc(-c2cc(Cl)c(F)c(C(=O)NNS(=O)(=O)C[C@@H]3CCN(C(=O)OC(C)(C)C)C3)c2)c1 [Compound I-117] | 10 to 50 | < 10 | < 10 | < 10
10 | CNC(=O)NC1CCCC(CS(=O)(=O)NNC(=O)c2cc(-c3cn(C)cn3)cc(Cl)c2F)C1 (stereo not shown) [Compound I-118] | 10 to 50 | < 10 | < 10 | < 10
11 | COCCc1nc(-c2cc(Cl)c(F)c(C(=O)NNS(=O)(=O)C3CCOCC3)c2)cn1C [Compound I-119] | 10 to 50 | 10 to 50 | 10 to 50 | 10 to 50
12 | Cn1cnc(-c2cc(Cl)c(F)c(C(=O)NNS(=O)(=O)C[C@@H]3CCNC3)c2)c1 [Compound I-120] | 10 to 50 | 10 to 50 | 10 to 50 | < 10
13 | Cn1cnc(-c2cc(Cl)c(F)c(C(=O)NNS(=O)(=O)C[C@H]3CCNC3)c2)c1 [Compound I-121] | 10 to 50 | 10 to 50 | 10 to 50 | < 10
14 | Cn1cnc(-c2cc(Cl)c(F)c(C(=O)NNS(=O)(=O)C[C@H]3CCN(C(=O)OC(C)(C)C)C3)c2)c1 [Compound I-122] | 10 to 50 | 10 to 50 | 10 to 50 | < 10
15 | Cn1cnc(-c2cc(Cl)c(F)c(C(=O)NNS(=O)(=O)C[C@H]3C[C@H](N)C3)c2)c1 [Compound I-123] | 10 to 50 | 10 to 50 | 10 to 50 | < 10
16 | Cn1cnc(-c2cc(Cl)c(F)c(C(=O)NNS(=O)(=O)C[C@H]3C[C@H](NC(=O)OC(C)(C)C)C3)c2)c1 [Compound I-124] | 10 to 50 | < 10 | < 10 | < 10
17 | CC(=O)N[C@H]1C[C@H](CS(=O)(=O)NNC(=O)c2cc(-c3cn(C)cn3)cc(Cl)c2F)C1 [Compound I-125] | 10 to 50 | 10 to 50 | 10 to 50 | < 10
18 | CCn1cnc(-c2cc(C)c(F)c(C(=O)NNS(=O)(=O)C3CCCCC3)c2)c1 [Compound I-126] | > 100 | < 10 | 10 to 50 | < 10
19 | Cc1cc(-c2cn(C)cn2)cc(C(=O)NNS(=O)(=O)C2CCCCC2)c1F [Compound I-127] | > 100 | < 10 | 10 to 50 | < 10
20 | Cc1cc(-c2cn(C)cn2)cc(C(=O)NNS(=O)(=O)Cc2ccccc2)c1F [Compound I-128] | > 100 | 10 to 50 | 10 to 50 | < 10
21 | Cc1cc(-c2cn(C)cn2)cc(C(=O)NNS(=O)(=O)CC2CCCCC2)c1F [Compound I-129] | > 100 | < 10 | < 10 | < 10
22 | Cc1cc(-c2cn(C)cn2)cc(C(=O)NNS(=O)(=O)CC2CCOCC2)c1F [Compound I-130] | > 100 | < 10 | 10 to 50 | < 10

Row | Compound | IC50 (KAT-8) [µM] | IC50 (KAT-5) [µM] | IC50 (KAT-6A) [µM] | IC50 (KAT-7) [µM]
23 | Cc1cc(-c2cn(C)cn2)cc(C(=O)NNS(=O)(=O)C2CCOCC2)c1F [Compound I-131] | > 100 | 10 to 50 | 10 to 50 | < 10
24 | Cc1cc(-c2cn(C)cn2)cc(C(=O)NNS(=O)(=O)CC2CCCN(C(=O)OC(C)(C)C)C2)c1F (stereo not shown) [Compound I-132] | > 100 | < 10 | < 10 | < 10
25 | Cc1cc(-c2cn(C)cn2)cc(C(=O)NNS(=O)(=O)CC2CCCNC2)c1F (stereo not shown) [Compound I-133] | > 100 | > 100 | > 100 | < 10
26 | COCCn1cnc(-c2cc(C)c(F)c(C(=O)NNS(=O)(=O)C3CCCCC3)c2)c1 [Compound I-134] | > 100 | 10 to 50 | > 100 | < 10
27 | COCCn1cnc(-c2cc(C)c(F)c(C(=O)NNS(=O)(=O)CC3CCCN(C(=O)OC(C)(C)C)C3)c2)c1 (stereo not shown) [Compound I-135] | > 100 | < 10 | 50 to 100 | 10 to 50
28 | COCCn1cnc(-c2cc(C)c(F)c(C(=O)NNS(=O)(=O)CC3CCCNC3)c2)c1 (stereo not shown) [Compound I-136] | > 100 | > 100 | > 100 | > 100
29 | COCCn1cnc(-c2cc(C)c(F)c(C(=O)NNS(=O)(=O)CC3CCCN(C(=O)COC)C3)c2)c1 (stereo not shown) [Compound I-137] | > 100 | 10 to 50 | 50 to 100 | 10 to 50
30 | COCCn1cnc(-c2cc(C)c(F)c(C(=O)NNS(=O)(=O)C3CCOCC3)c2)c1 [Compound I-138] | > 100 | 10 to 50 | > 100 | 50 to 100
31 | Cc1cc(-c2cn(C(C)C)cn2)cc(C(=O)NNS(=O)(=O)C2CCCCC2)c1F [Compound I-139] | > 100 | 10 to 50 | > 100 | < 10
32 | COCCn1cnc(-c2cc(C)c(F)c(C(=O)NNS(=O)(=O)CC3CCOCC3)c2)c1 [Compound I-140] | > 100 | 10 to 50 | 10 to 50 | < 10
33 | COCC(=O)N1CCCC(CS(=O)(=O)NNC(=O)c2cc(-c3cn(C)cn3)cc(C)c2F)C1 (stereo not shown) [Compound I-141] | > 100 | < 10 | < 10 | < 10
34 | CC(=O)N1CCCC(CS(=O)(=O)NNC(=O)c2cc(-c3cn(C)cn3)cc(C)c2F)C1 (stereo not shown) [Compound I-142] | > 100 | < 10 | < 10 | < 10
35 | Cc1cc(-c2cn(CCO)cn2)cc(C(=O)NNS(=O)(=O)C2CCOCC2)c1F [Compound I-143] | > 100 | 50 to 100 | 50 to 100 | 50 to 100
36 | Cn1cnc(-c2cc(Cl)c(Cl)c(C(=O)NNS(=O)(=O)CC3CCCCC3)c2)c1 [Compound I-144] | > 100 | > 100 | > 100 | < 10
37 | Cc1cc(-c2cn(C)cn2)cc(C(=O)NNS(=O)(=O)CC2CCCCC2)c1C [Compound I-145] | > 100 | > 100 | > 100 | 10 to 50
38 | Cc1cc(-c2cn(CCO)cn2)cc(C(=O)NNS(=O)(=O)CC2CCOCC2)c1F [Compound I-146] | > 100 | 10 to 50 | 10 to 50 | 10 to 50
39 | Cc1cc(-c2cn(C)c(Cl)n2)cc(C(=O)NNS(=O)(=O)CC2CCCCC2)c1C [Compound I-147] | > 100 | > 100 | > 100 | > 100
40 | COCC(=O)N1CCCC(CS(=O)(=O)NNC(=O)c2cc(-c3cn(CCO)cn3)cc(C)c2F)C1 (stereo not shown) [Compound I-148] | 10 to 50 | 10 to 50 | 10 to 50 | 10 to 50
41 | Cn1cnc(-c2cc(F)c(F)c(C(=O)NNS(=O)(=O)C3CCOCC3)c2)c1 [Compound I-149] | 10 to 50 | 10 to 50 | 10 to 50 | < 10
42 | Cn1cnc(-c2cc(F)c(F)c(C(=O)NNS(=O)(=O)CC3CCOCC3)c2)c1 [Compound I-150] | 10 to 50 | 10 to 50 | 10 to 50 | < 10
43 | CCCn1cc(-c2cc(C)c(F)c(C(=O)NNS(=O)(=O)C3CCCCC3)c2)cn1 [Compound I-151] | > 100 | 50 to 100 | > 100 | 10 to 50
